59 compounds from US9938262B2, “Benzamides” (Merck Patent GmbH, priority 2011, dated 2018) can be followed below.

As usually defined, the pEC50 is −log10 of the EC50, conventionally taken in molar units.

Structures are written as SMILES. pEC50: −log10 of the molar value.

T1 sequence (P23945 18-695): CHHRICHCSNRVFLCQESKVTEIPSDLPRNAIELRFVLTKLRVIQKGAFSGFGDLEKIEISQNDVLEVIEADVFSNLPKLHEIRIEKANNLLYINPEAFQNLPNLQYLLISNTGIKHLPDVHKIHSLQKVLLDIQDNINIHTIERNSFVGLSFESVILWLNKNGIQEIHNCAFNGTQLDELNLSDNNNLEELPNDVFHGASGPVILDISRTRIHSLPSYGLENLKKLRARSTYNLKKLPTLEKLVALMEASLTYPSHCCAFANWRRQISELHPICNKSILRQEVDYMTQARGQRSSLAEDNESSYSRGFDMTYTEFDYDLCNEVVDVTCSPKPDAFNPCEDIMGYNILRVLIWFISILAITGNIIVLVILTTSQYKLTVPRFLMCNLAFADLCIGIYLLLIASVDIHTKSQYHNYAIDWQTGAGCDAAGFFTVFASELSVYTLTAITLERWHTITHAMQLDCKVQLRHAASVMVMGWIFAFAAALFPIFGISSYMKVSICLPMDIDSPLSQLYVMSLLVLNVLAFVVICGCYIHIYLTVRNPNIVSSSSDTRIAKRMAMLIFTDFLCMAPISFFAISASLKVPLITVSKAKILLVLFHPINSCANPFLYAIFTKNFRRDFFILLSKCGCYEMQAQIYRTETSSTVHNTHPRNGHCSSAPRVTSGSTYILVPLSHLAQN
T1 sequence (P01215 25-116 partner): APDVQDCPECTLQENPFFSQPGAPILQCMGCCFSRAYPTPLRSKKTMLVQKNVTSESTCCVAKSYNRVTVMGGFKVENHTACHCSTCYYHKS
T1 sequence (P01225 19-129 partner): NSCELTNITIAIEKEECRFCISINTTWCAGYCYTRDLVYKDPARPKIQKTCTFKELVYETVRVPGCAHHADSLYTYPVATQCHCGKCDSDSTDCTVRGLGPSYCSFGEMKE

One experiment concerns the target T1, FSHR (Homo sapiens, UniProt P23945).
T1 construct: expressed in transfected cells; host or cells: CHO (Cho-FSHR-LUC-1-1-43)
Put plainly: EC50 of cyclic AMP production in CHO FSHR cells + EC20 FSH (Assay A). It is filed as cell-based. Conditions: 1 h; 5 μM; effect relative to maximum response of the FSH standard; Table 1. The method in brief:
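cAMP HTRF ratio (665/620 nm) read after 1 h, 37 °C exposure of CHO-FSHR cells to compound in presence of EC20 FSH ([…]) and IBMX 200 μM. Responses given relative to FSH standard maximum; EC50 derived.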
Take `Cc1ccc(C(=O)Nc2cc(C(=O)NCCCN3CCCC3=O)ccc2N2CCN(Cc3ccccc3C(F)(F)F)[C@@H](C)C2)o1` [Compound 254]: the activation at 5 µM worked out at 20%.

As to `COc1ccc(C(=O)Nc2cc(C(=O)NCCCN3CCCC3=O)ccc2N2CCN(c3ccccc3C)CC2)cc1OC` [Compound 127], the activation at 5 µM amounted to 33%.

As to `Cc1ccccc1N1CCN(c2ccc(C(=O)NCCCN3CCCC3=O)cc2NC(=O)c2cc(C)c(C)o2)CC1` [Compound 138], the activation at 5 µM is 41%.

As for `Cc1ccccc1N1CCN(c2ccc(C(=O)NCCCN3CCCC3=O)cc2NC(=O)c2cccc3ccccc23)CC1` [Compound 88], the activation at 5 µM worked out at 34%.

As to `CCNc1nc(C)c(C(=O)Nc2cc(C(=O)NCCCN3CCCC3=O)ccc2N2CCN(c3ccccc3C)CC2)s1` [Compound 100], the activation at 5 µM stood at 12%.

`Cc1ccccc1N1CCN(c2ccc(C(=O)NCCCN3CCCC3=O)cc2NS(=O)(=O)Cc2cccc3cccnc23)CC1` [Compound 239]: the activation at 5 µM worked out at 43%.

On to `Cc1ccccc1N1CCN(c2ccc(C(=O)N3CCN(C(=O)OC(C)(C)C)CC3)cc2NC(=O)c2ccco2)CC1` [Compound 12], for which the activation at 5 µM is 7%.

The same experiment, now with this note: CHO FSHR cells + EC20 FSH; Table 1; read-out: Assay A EC50 of cyclic AMP production.
For `C=CC(=O)NCCCNC(=O)c1ccc(N2CCN(c3ccccc3C)CC2)c(NC(=O)c2ccco2)c1` [Compound 212], the negative-log EC50 (pEC50) is 6.00 to 7.00.

In the case of `C=CC(=O)NCCNC(=O)c1ccc(N2CCN(c3ccccc3C)CC2)c(NC(=O)c2ccco2)c1` [Compound 225], the pEC50 is 6.00 to 7.00.

As for `Cc1ccccc1N1CCN(c2ccc(C(=O)NCCCN3CCCC3=O)cc2NC(=O)c2ncsc2C)CC1` [Compound 179], the negative-log EC50 (pEC50) is 6.00 to 7.00.

As for `Cc1ccccc1N1CCN(c2ccc(C(=O)NCc3ccc(Cl)cc3)cc2NC(=O)c2coc(C3CC3)n2)CC1` [Compound 235], the pEC50 is 5.00 to 6.00.

For `Cc1ccccc1N1CCN(c2ccc(C(=O)NCCCN3CCCC3=O)cc2NC(=O)c2cocn2)CC1` [Compound 103], the pEC50 was 5.00 to 6.00.

With `Cc1ccccc1N1CCN(c2ccc(C(=O)NCCC(C)N3CCCC3)cc2NC(=O)c2ccco2)CC1` (centres unmarked) [Compound 181], the negative-log EC50 (pEC50) is 5.00 to 6.00.

Take `CC(=O)N1CCC(NC(=O)c2ccc(N3CCN(c4ccccc4C)CC3)c(NC(=O)c3ccco3)c2)CC1` [Compound 56, Furan-2-carboxylic acid [5-(1-acetyl-piperidin-4-ylcarbamoyl)-2-(4-o-tolyl-piperazin-1-yl)-phenyl]-amide]: the negative-log EC50 (pEC50) is 5.00 to 6.00.

As for `COc1ccc(C(=O)Nc2cc(C(=O)NCCCN3CCCC3=O)ccc2N2CCN(c3ccccc3C)CC2)cc1` [Compound 42], the negative-log EC50 (pEC50) is 6.00 to 7.00.

Take `Cc1ccccc1N1CCN(c2ccc(C(=O)NCCCN3CCCC3=O)cc2NC(=O)c2ccno2)CC1` [Compound 98]: the pEC50 was 5.00 to 6.00.

On to `Cc1ccccc1N1CCN(c2ccc(C(=O)NCCCN3CCCC3=O)cc2NC(=O)c2ncoc2C)CC1` [Compound 78], for which the pEC50 is 6.00 to 7.00.

In the case of `Cc1ccccc1N1CCN(c2ccc(C(=O)NCCCN3CCCC3=O)cc2NC(=O)c2occc2Br)CC1` [Compound 7], the pEC50 was 5.00 to 6.00.

In the case of `Cc1ccccc1N1CCN(c2ccc(C(=O)NCCCN3CCCC3=O)cc2NC(=O)c2sc(Br)nc2C)CC1` [Compound 72], the pEC50 was less than 5.00.

Take `Cc1ccccc1N1CCN(c2ccc(C(=O)NCCCN3CCCC3=O)cc2NC(=O)c2ccccc2C(F)(F)F)CC1` [Compound 87]: the pEC50 is 5.00 to 6.00.

Staying with this experiment, now noted: CHO FSHR cells + EC20 FSH; Table 2; read-out: Assay A EC50 of cyclic AMP production.
Regarding `COc1ccccc1CNC(=O)c1ccc(N2CCN(c3ccccc3C)CC2)c(NC(=O)c2coc(C3CC3)n2)c1` [Compound 277], the pEC50 is 6.00 to 7.00.

For the compound `Cc1ccccc1N1CCN(c2ccc(C(=O)NCCc3ccc(CNC(=O)OC(C)(C)C)cc3)cc2NC(=O)c2coc(C3CC3)n2)CC1` [Compound 489], the negative-log EC50 (pEC50) is 5.00 to 6.00.

As for `Cc1ccccc1N1CCN(c2ccc(C(=O)NCCCN3CCCC3C(N)=O)cc2NC(=O)c2ccco2)CC1` (centres unmarked) [Compound 503], the negative logarithm of the EC50 (pEC50) was 6.00 to 7.00.

For `Cc1ccccc1N1CCN(c2ccc(C(=O)NCc3cccc(CN4CCCC4)c3)cc2NC(=O)c2ccco2)CC1` [Compound 454], the pEC50 is 6.00 to 7.00.

As for `Cc1ccccc1N1CCN(c2ccc(C(=O)NCCCN3C(=O)CCC3(C)C)cc2NC(=O)c2coc(C3CC3)n2)CC1` [Compound 354], the pEC50 is 6.00 to 7.00.

Take `Cc1ccc(C(=O)Nc2cc(C(=O)N3CC4(COC4)C3)ccc2N2CCN(c3ccccc3C)CC2)o1` [Compound 591]: the pEC50 was less than 5.00.

Consider `Cc1cncnc1N1CCN(c2ccc(C(=O)NCCc3cn(C)cn3)cc2NC(=O)c2coc(C3CC3)n2)CC1` [Compound 462], for which the negative-log EC50 (pEC50) was 5.00 to 6.00.

For the compound `Cc1ccccc1N1CCN(c2ccc(C(=O)N[C@H]3CCC[C@H](O)C3)cc2NC(=O)c2coc(C3CC3)n2)CC1` [Compound 576], the negative-log EC50 (pEC50) is greater than 7.00.

As for `Cc1ccccc1N1CCN(c2ccc(C(=O)NCCCN3CCOC3=O)cc2NC(=O)c2ccc(Br)o2)CC1` [Compound 385], the pEC50 is 6.00 to 7.00.

`Cc1ccccc1N1CCN(c2ccc(C(=O)NCCN(C)C3CCCC3)cc2NC(=O)c2ccco2)CC1` [Compound 502]: the pEC50 was 6.00 to 7.00.

`Cc1ccccc1N1CCN(c2ccc(C(=O)NCCc3cn(C)cn3)cc2NC(=O)c2coc(C3CC3)n2)CC1` [Compound 317]: the pEC50 was 6.00 to 7.00.

Regarding `COC(C(=O)Nc1cc(C(=O)NCCCN2CCCC2=O)ccc1N1CCN(c2ccccc2C)CC1)c1ccccc1` (centres unmarked) [Compound 562], the pEC50 was 6.00 to 7.00.

With `Cc1ccc(C(=O)Nc2cc(C(=O)NC(C)(C)c3cccc(CN(C)C)c3)ccc2N2CCN(c3ccccc3C)CC2)o1` [Compound 545], the negative logarithm of the EC50 (pEC50) is 5.00 to 6.00.

As to `Cc1ccccc1N1CCN(c2ccc(C(=O)NCCN3C(=O)CCC3=O)cc2NC(=O)c2ccco2)CC1` [Compound 305], the pEC50 is greater than 7.00.

As for `Cc1ccccc1N1CCN(c2ccc(C(=O)NCCCC(=O)N(C)C)cc2NC(=O)c2coc(C3CC3)n2)CC1` [Compound 418], the negative-log EC50 (pEC50) is 6.00 to 7.00.

For `Cc1ccccc1N1CCN(c2ccc(C(=O)NCc3cccc(CN(C)C)n3)cc2NC(=O)c2ccco2)CC1` [Compound 474], the negative logarithm of the EC50 (pEC50) was greater than 7.00.

In the case of `Cc1ccccc1N1CCN(c2ccc(C(=O)NCCCN3CCC[C@@H]3C(N)=O)cc2NC(=O)c2ccco2)CC1` [Compound 608], the pEC50 is 6.00 to 7.00.

For the compound `Cc1csc(CCCNC(=O)c2ccc(N3CCN(c4ccccc4C)CC3)c(NC(=O)c3coc(C4CC4)n3)c2)n1` [Compound 395], the negative logarithm of the EC50 (pEC50) was 6.00 to 7.00.

For the compound `Cc1ccccc1N1CCN(c2ccc(C(=O)NCc3cccc(C(=O)N(C)C)c3)cc2NC(=O)c2ccco2)CC1` [Compound 485], the pEC50 was 6.00 to 7.00.

Turning to `Cc1ccccc1N1CCN(c2ccc(C(=O)NCCCN3C(=O)C(=O)N(C)C3=O)cc2NC(=O)c2ccco2)CC1` [Compound 379], the negative-log EC50 (pEC50) is 6.00 to 7.00.

With `Cc1ccccc1N1CCN(c2ccc(C(=O)NCCCc3ccc(O)cc3)cc2NC(=O)c2ccco2)CC1` [Compound 388], the negative logarithm of the EC50 (pEC50) was greater than 7.00.

Take `Cc1ccccc1N1CCN(c2ccc(C(=O)NCCCc3c[nH]cn3)cc2NC(=O)c2coc(C3CC3)n2)CC1` [Compound 274]: the pEC50 was 6.00 to 7.00.

Consider `CCC(C)NC(=O)NCCCNC(=O)c1ccc(N2CCN(c3ccccc3C)CC2)c(NC(=O)c2ccco2)c1` (centres unmarked) [Compound 511], for which the negative-log EC50 (pEC50) was 6.00 to 7.00.

For `Cc1ccccc1N1CCN(c2ccc(C(=O)NCC(O)CN3CCCC3)cc2NC(=O)c2ccco2)CC1` (centres unmarked) [Compound 501], the pEC50 was 6.00 to 7.00.

Consider `Cc1ccccc1N1CCN(c2ccc(C(=O)NCCNC3CCCC3)cc2NC(=O)c2ccco2)CC1` [Compound 389], for which the pEC50 was less than 5.00.

Take `Cc1ccccc1N1CCN(c2ccc(C(=O)NCC(=O)NC3CCCC3)cc2NC(=O)c2coc(C3CC3)n2)CC1` [Compound 294]: the pEC50 is 5.00 to 6.00.

Consider `Cc1ccccc1N1CCN(c2ccc(C(=O)NCCC(C)N3CCCC3=O)cc2NC(=O)c2coc(C3CC3)n2)CC1` (centres unmarked) [Compound 333], for which the pEC50 is 6.00 to 7.00.

With `Cc1cccc(C)c1N1CCN(c2ccc(C(=O)NCCCN3CCCC3=O)cc2NC(=O)c2coc(C3CC3)n2)CC1` [Compound 299], the pEC50 is 5.00 to 6.00.

For `CCNC(=O)NCCCNC(=O)c1ccc(N2CCN(c3ccccc3C)CC2)c(NC(=O)c2ccc(C)o2)c1` [Compound 270], the pEC50 is 6.00 to 7.00.

With `Cc1ccccc1N1CCN(c2ccc(C(=O)NCCCN3CCCC3=O)cc2NC(=O)C(F)(F)F)CC1` [Compound 451], the pEC50 was 6.00 to 7.00.

For `Cc1ccccc1N1CCN(c2ccc(C(=O)NCCc3ccc(CN)cc3)cc2NC(=O)c2coc(C3CC3)n2)CC1` [Compound 499], the pEC50 was 6.00 to 7.00.

As to `Cc1cnccc1N1CCN(c2ccc(C(=O)NCCc3cnc[nH]3)cc2NC(=O)c2coc(C3CC3)n2)CC1` [Compound 457], the pEC50 was 5.00 to 6.00.

`Cc1ccccc1N1CCN(c2ccc(C(=O)NCCCC3CCCC3)cc2NC(=O)c2ccco2)CC1` [Compound 375]: the negative-log EC50 (pEC50) is 6.00 to 7.00.

In the case of `C=CCNC(=O)NCCCNC(=O)c1ccc(N2CCN(c3ccccc3C)CC2)c(NC(=O)c2ccco2)c1` [Compound 512], the pEC50 was greater than 7.00.

Regarding `Cc1ccccc1N1CCN(c2ccc(C(=O)NCCCNC(=O)C3CC3)cc2NC(=O)c2coc(C3CC3)n2)CC1` [Compound 447], the pEC50 is 6.00 to 7.00.

Turning to `Cc1ccccc1N1CCN(c2ccc(C(=O)NCc3ccc(CN(C)C)cc3)cc2NC(=O)c2ccco2)CC1` [Compound 455], the pEC50 was 6.00 to 7.00.

As to `Cc1ccccc1N1CCN(c2ccc(C(=O)NCCCc3cccc(O)c3)cc2NC(=O)c2coc(C3CC3)n2)CC1` [Compound 570], the negative logarithm of the EC50 (pEC50) is 6.00 to 7.00.

On to `Cc1ccccc1N1CCN(c2ccc(C(=O)NCc3cccc(CN4CCOCC4)c3)cc2NC(=O)c2ccco2)CC1` [Compound 471], for which the negative logarithm of the EC50 (pEC50) was 6.00 to 7.00.

Consider `O=C(NCCCN1CCCC1=O)c1ccc(N2CCN(C(=O)C3CC3)CC2)c(NC(=O)c2coc(C3CC3)n2)c1` [Compound 431], for which the negative logarithm of the EC50 (pEC50) was less than 5.00.
